Experiment [1] relates to orientation hypermotility. In words: Sedative action (orientation hypermotility, mouse). Type of experiment: in vivo, female NMRI mice. The note with it: oral; for ED50: 0.5 h, 50% decrease in orientation hypermotility vs control, measured from 30 min after dosing for 30 min, read-out: Sedative action mouse ED 50; for sedative action compared with clozapine: in words, action of reference clozapine. How it is done:
4 to 8 groups each comprising 3 female NMRI mice receive the substances by oral administration. The orientation hypermotility induced by a new environment is determined photoelectrically 30 min after the administration of the substance for a period of 30 min.
The ED50 is determined as the dose which brings about a decrease in the orientation hypermotility of 50% compared with placebo-treated control animals.

Experiment [2] deals with L-5-Hydroxytryptamine (L-5-HTP). The experiment in a line: L-5-HTP antagonism (serotonin antagonism). The experiment is classed as in vivo, rats. As to conditions: oral, rat; for ED50: 1 h before L-5-HTP (316 mg/kg i.p.), 50% mean reduction in score, read-out: Antiserotoninergic action rat ED; for antiserotoninergic action compared with clozapine: in words, action of reference clozapine. How it is done:
2. L-5-HTP antagonism (serotonin antagonism)
L-5-Hydroxytryptamine (L-5-HTP), a serotonin prodrug, causes in rats (316 mg/kg i.p.) a state of agitation which is characterized by signs such as head-shaking, tremor and movements of the forepaws. The animals are observed for 1 h after administration of L-5-HTP, and the signs are scored every 10 min. The test substances are administered orally 1 h before L-5-HTP; n/dose=6. The ED50 is calculated as the dose which brings about a mean reduction in the score of a control group by 50%.

For another experiment, the system named is physostigmine. In words: Anticholinergic action (protection from lethal physostigmine). Type of experiment: in vivo, female NMRI mice. The note with it: oral, mouse, 30 min before physostigmine 0.825 mg/kg s.c.; protects 50% from death; read-out: Anticholinergic mouse ED 50. How it is done:
3. Anticholinergic action
Groups of 10 female NMRI mice receive physostigmine in a lethal dose (0.825 mg/kg) subcutaneously. The test substances are administered orally 30 min before the physostigmine administration. The ED50 is determined as the dose of substance which protects 50% of the animals from death due to physostigmine.

In the next experiment the target is T1, dopamine D1 receptor (Bos taurus, UniProt Q95136).
T1 construct: bovine nucleus caudatus membranes; from tissue; host or cells: bovine caudate nucleus membranes
T1 sequence (Q95136 whole entry): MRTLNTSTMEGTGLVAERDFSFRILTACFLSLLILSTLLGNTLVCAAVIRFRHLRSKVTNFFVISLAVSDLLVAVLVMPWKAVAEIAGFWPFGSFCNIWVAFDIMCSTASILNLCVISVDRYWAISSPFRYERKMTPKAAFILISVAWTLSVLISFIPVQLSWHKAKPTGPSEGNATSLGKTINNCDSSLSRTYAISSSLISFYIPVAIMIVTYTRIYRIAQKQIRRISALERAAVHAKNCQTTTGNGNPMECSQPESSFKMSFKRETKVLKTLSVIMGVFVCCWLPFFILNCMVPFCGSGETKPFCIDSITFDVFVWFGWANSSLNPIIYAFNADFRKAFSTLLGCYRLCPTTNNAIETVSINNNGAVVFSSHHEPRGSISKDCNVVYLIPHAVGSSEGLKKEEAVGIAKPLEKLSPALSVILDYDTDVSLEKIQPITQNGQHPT
The experiment in a line: Affinity to dopamine D1 receptor, competitive assay, 3H-SCH 23390. The experiment is classed as binding, bovine. As for the experimental part: (§1) 4. In vitro determination of the affinity to dopamine D1 and D2 receptors by means of competitive assays
(§2) The non-specific binding was determined using 10 μM (+)-butaclamol or using 1 μM haloperidol. After incubation at 30° C. for 60 min, the mixtures were filtered through glass fiber filters (GF/B, Whatman) and the amount of radioligand retained on the filter was determined by liquid scintillation measurement.

The next experiment deals with T2, dopamine D2 receptor (Bos taurus, UniProt P20288).
T2 construct: bovine nucleus caudatus membranes; from tissue; host or cells: bovine caudate nucleus membranes
T2 sequence (P20288 whole entry): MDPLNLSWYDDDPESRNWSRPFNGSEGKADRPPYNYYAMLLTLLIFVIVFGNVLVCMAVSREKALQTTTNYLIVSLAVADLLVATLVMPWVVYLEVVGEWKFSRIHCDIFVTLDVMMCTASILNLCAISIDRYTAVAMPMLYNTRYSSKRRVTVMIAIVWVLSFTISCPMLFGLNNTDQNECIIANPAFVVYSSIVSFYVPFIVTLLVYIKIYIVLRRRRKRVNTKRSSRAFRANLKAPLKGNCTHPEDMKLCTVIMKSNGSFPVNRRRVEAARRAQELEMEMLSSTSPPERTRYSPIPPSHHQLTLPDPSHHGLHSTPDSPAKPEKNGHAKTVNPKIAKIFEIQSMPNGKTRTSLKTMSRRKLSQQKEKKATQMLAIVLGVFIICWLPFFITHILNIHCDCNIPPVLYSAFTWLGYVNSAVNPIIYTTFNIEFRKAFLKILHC
The experiment in a line: Affinity to dopamine D2 receptor, competitive assay, 3H-spiperon. Type of experiment: binding, bovine. As for the experimental part: as §1, §2

[3] abbreviates: bovine nucleus caudatus membranes, pH 7.4, 30° C., 60 min, 1 nM radioligand, read-out: Affinity to D1 receptor, Inhibition of 3H-SCH 23 390 binding, Ki.
Setting [4] is: bovine nucleus caudatus membranes, pH 7.4, 30° C., 60 min, 0.2 nM radioligand, read-out: Affinity to D2 receptor, Inhibition of 3H-spiperon binding, Ki.

Molecules are shown by their SMILES. Read-outs that look alike come from different tables or passages of the source.

With `CN1CCN(C2=Nc3cc(Cl)ccc3Nc3ccccc32)CC1` [Clozapine, clozapine, reference compound], the figures for the ED50 in experiment [1] and in experiment [2] were 3.8 mg/kg and 6.3 mg/kg, respectively.
For `CN1CCN(C2=Nc3ccccc3/C(=C/C#N)c3cn(C)cc32)CC1` [Example 1a, 10-Cyanomethylene-2-methyl-4-(4-methyl-1-piperazinyl)pyrrolo[4,3-e]benzazepine], the ED50 in experiment [1] is 2.96 mg/kg; in experiment [2] it was 1.18 mg/kg; with physostigmine, > 21.5 mg/kg. Further, the “sedative action compared with clozapine” value in experiment [1] was “reached or exceeded”. Besides, the “antiserotoninergic action compared with clozapine” value in experiment [2] is listed as “reached or exceeded”. The Ki was 10.5 nM at dopamine D1 receptor and ~2000 nM at dopamine D2 receptor.
In the case of `CN1CCN(C2=Nc3cc(Cl)ccc3C(=CC#N)c3cn(C)cc32)CC1` [Example 3, (E),(Z)-7-Chloro-10-cyanomethylene-2-methyl-4-(4-methyl-1-piperazinyl)pyrrolo[4,3-e]benzazepine], the ED50 in experiment [1] came out at 0.82 mg/kg; in experiment [2], 0.2 mg/kg; in the experiment on physostigmine, 17.5 mg/kg. In experiment [1], the “sedative action compared with clozapine” value was “reached or exceeded”. Further, the “antiserotoninergic action compared with clozapine” value in experiment [2] is reported as “reached or exceeded”. Further, the Ki at dopamine D1 receptor (setting [3]) is 20 nM; on dopamine D2 receptor (setting [4]), ~1000 nM.
For the compound `CN1CCN(C2=Nc3cc(Cl)ccc3/C(=C/C#N)c3cn(C)cc32)CC1` [Example 3a, (E)-7-Chloro-10-cyanomethylene-2-methyl-4-(4-methyl-1-piperazinyl)pyrrolo[4,3-e]benzazepine], the ED50 in experiment [1] is 0.67 mg/kg; in experiment [2] it was 0.29 mg/kg.
As to `CN1CCN(C2=Nc3ccccc3C(=CC#N)c3cn(Cc4ccccc4)cc32)CC1` [Example 9, (E),(Z)-10-Cyanomethylene-2-benzyl-4-(4-methyl-1-piperazinyl)pyrrolo[4,3-e]benzazepine], the ED50 in experiment [1] is 29.8 mg/kg; in experiment [2] it was 46.4 mg/kg; in the experiment on physostigmine it was > 46.4 mg/kg. The Ki on dopamine D1 receptor (setting [3]) was 3.4 nM; at dopamine D2 receptor (setting [4]), ~1000 nM.
On to `CN1CCN(C2=Nc3cc(Cl)ccc3C(=CC#N)c3cn(Cc4ccccc4)cc32)CC1` [Example 11, (E),(Z)-7-Chloro-2-benzyl-10-cyanomethylene-4-(4-methyl-1-piperazinyl)pyrrolo[4,3-e]benzazepine], for which the ED50 in experiment [1] was 35 mg/kg; in the experiment with physostigmine, > 100 mg/kg. Also, the values for the Ki at dopamine D1 receptor (setting [3]) and on dopamine D2 receptor (setting [4]) were 12.8 nM and ~1000 nM, respectively.
Turning to `CCN1CCN(C2=Nc3ccccc3C(=CC#N)c3cn(C)cc32)CC1` [Example 12, (E),(Z)-10-Cyanomethylene-2-methyl-4-(4-ethyl-1-piperazinyl)pyrrolo[4,3-e]benzazepine], the ED50 was found to be 4.7 mg/kg in experiment [1], 3.3 mg/kg in experiment [2] and 16.7 mg/kg in the experiment on physostigmine. In addition, in experiment [2], the “antiserotoninergic action compared with clozapine” value is reported as “reached or exceeded”. Besides, the Ki at dopamine D1 receptor (setting [3]) is 20.8 nM; at dopamine D2 receptor (setting [4]) it was ~2000 nM.

(Values after patent US4866057A, “4-substituted 10-cyanomethylenepyrrolo[4,3-e]-benzazepines” (BASF Aktiengesellschaft, priority 1987, dated 1989).)
